The target in one assay is T1, TbPTR1 (Trypanosoma brucei brucei, UniProt O76290).
T1 sequence (O76290 1-268): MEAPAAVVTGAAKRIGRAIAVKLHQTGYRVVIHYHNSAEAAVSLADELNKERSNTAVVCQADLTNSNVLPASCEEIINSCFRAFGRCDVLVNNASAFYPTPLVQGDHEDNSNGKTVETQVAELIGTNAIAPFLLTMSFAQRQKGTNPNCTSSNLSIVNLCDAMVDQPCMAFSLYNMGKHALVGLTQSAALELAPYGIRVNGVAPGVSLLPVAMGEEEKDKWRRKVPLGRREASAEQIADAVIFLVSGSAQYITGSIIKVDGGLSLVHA
Nature of the assay: TbPTR1 inhibition, Cytochrome C coupled spectrophotometric assay. The class given is biochemical. The following applies: for IC50: recombinant protein, standard errors within ± 10%; for inhibition at 10 µM: primary screening, read-out: percentage of inhibition TbPTR1.

A further assay addresses T2, LmPTR1 (Leishmania major, UniProt Q01782).
T2 sequence (Q01782 1-288): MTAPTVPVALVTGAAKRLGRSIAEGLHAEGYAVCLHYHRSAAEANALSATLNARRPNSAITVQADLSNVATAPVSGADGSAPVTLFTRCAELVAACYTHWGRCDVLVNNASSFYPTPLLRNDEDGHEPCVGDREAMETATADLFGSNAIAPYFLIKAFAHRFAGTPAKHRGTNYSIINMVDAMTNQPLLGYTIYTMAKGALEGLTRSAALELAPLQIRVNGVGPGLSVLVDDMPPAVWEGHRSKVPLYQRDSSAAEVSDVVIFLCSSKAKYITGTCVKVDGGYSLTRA
The experiment in a line: LmPTR1 inhibition, Cytochrome C coupled spectrophotometric assay. It counts as biochemical. The following applies: for IC50: recombinant protein, standard errors within ± 10%; for inhibition at 10 µM: primary screening, read-out: percentage of inhibition LmPTR1.

The target in a further assay is TbDHFR-TS (Trypanosoma brucei brucei, UniProt Q27783). Nature of the assay: TbDHFR-TS inhibition, spectrophotometric DHF reduction assay (dose-response). It counts as biochemical. The following applies: recombinant TbDHFR-TS; 40, 20 and 10 µM tested; standard errors within ± 10%.
TbDHFR-TS, sequence (Q27783 whole entry): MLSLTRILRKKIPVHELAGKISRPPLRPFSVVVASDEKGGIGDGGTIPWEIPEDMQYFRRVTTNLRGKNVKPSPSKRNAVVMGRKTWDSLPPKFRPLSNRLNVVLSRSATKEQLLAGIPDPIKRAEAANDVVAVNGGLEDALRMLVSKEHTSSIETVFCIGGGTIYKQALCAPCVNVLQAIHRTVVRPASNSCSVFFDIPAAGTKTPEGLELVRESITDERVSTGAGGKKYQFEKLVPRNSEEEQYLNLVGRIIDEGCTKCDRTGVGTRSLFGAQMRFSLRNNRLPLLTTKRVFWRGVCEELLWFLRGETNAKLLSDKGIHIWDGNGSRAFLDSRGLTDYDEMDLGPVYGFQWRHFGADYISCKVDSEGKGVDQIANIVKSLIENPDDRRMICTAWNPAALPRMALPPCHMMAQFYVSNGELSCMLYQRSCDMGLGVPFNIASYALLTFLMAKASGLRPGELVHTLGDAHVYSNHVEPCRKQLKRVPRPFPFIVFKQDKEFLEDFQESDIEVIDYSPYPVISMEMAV
The next assay has as its target LmDHFR-TS (Leishmania major, UniProt P07382). Nature of the assay: LmDHFR-TS inhibition, spectrophotometric DHF reduction assay (dose-response). The class given is biochemical. The conditions noted are these: recombinant LmDHFR-TS; 40, 20 and 10 µM tested; standard errors within ± 10%.
A further assay relates to T. brucei. Also noted: method as in PMID 25740547. The conditions noted are these: parasite growth inhibition, data from open resource GSK database ref 21, cited from earlier work.
The next assay deals with L. donovani. Also noted: method as in PMID 25740547. The following applies: parasite growth inhibition, data from open resource GSK database ref 21, cited from earlier work.
For another assay, the system named is T. cruzi. Set-up: method as in PMID 25740547. The conditions noted are these: parasite growth inhibition ref 21; cited from earlier work.

This is an account of results in publication PMC8704748, “Repurposing the Trypanosomatidic GSK Kinetobox for the Inhibition of Parasitic Pteridine and Dihydrofolate Reductases” (Pharmaceuticals, 2021).

Each structure is given as a SMILES string. Entries after “also recorded” stand apart in the source; their conditions may differ. Like-named read-outs stand apart in the source and are kept apart here.

LmDHFR-TS, sequence (P07382 whole entry): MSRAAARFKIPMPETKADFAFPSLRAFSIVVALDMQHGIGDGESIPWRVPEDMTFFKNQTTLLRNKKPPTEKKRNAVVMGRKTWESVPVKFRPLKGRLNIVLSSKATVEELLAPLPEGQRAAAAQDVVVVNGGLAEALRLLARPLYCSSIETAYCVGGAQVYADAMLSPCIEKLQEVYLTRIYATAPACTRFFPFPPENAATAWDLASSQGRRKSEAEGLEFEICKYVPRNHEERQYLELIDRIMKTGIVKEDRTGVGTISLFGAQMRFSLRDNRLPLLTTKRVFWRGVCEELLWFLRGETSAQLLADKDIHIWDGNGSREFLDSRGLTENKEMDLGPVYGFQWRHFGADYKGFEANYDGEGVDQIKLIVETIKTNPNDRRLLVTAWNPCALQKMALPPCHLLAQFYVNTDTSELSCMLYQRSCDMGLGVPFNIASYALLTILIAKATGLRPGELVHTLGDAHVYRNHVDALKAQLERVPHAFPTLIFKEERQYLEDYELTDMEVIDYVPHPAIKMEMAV

As for `CC(c1cc(Cl)cc(Cl)c1)N(C)c1ncc2c(N)nc(N)nc2n1` (centres unmarked) [TCMDC-143297], the IC50 on TbPTR1 came out at 9.8 µM; on LmPTR1, 5.7 µM; at TbDHFR-TS, 11.6 µM; at LmDHFR-TS it was 20.1 µM. Moreover, the EC50 in the assay with T. brucei is 35.7 µM; with L. donovani it was 0.6 µM.
In the case of `COc1ccccc1-c1c(C)[nH]c2nc(N)nc(C)c12` [TCMDC-143610], the IC50 on TbPTR1 stood at 7.3 µM; at LmPTR1 it was 9.3 µM; on TbDHFR-TS, 38.2 µM; at LmDHFR-TS, 40 µM. The EC50 in the assay on T. brucei was 32.5 µM; with L. donovani, 17.9 µM.
For `CC(c1ccc2c(c1)CCCC2)N(C)c1ncc2c(N)nc(N)nc2n1` (centres unmarked) [TCMDC-143296], the IC50 at TbPTR1 stood at 8.6 µM; at LmPTR1, 6.5 µM; at TbDHFR-TS, 9.7 µM; on LmDHFR-TS it was 6.9 µM. Also, the values for the EC50 with T. brucei and in the assay with L. donovani were 14.2 µM and 1.8 µM, respectively.
`O=C1NCCn2ccc(Nc3nc(N[C@H]4CC[C@H](O)CC4)ncc3Cl)c21` [TCMDC-143386]: the IC50 was 35 µM at TbPTR1, 6.7 µM at LmPTR1, over 40 µM at TbDHFR-TS and 25.8 µM on LmDHFR-TS. The inhibition at 10 µM at LmPTR1 turned out to be 75%. Moreover, the values for the EC50 with T. brucei and in the assay on L. donovani were 0.6 µM and 1.4 µM, respectively.
With `N#Cc1cccc(Nc2nccc(N3CCC(NS(=O)(=O)c4cccc(C#N)c4)CC3)n2)c1` [TCMDC-143249], the IC50 on TbPTR1 was 13.5 µM; at LmPTR1, 6 µM; at TbDHFR-TS, over 40 µM; at LmDHFR-TS, over 40 µM. The “IC50 TbDHFR” value at TbDHFR-TS was “inactive; also recorded: no inhibition”. For the same compound, the “IC50 LmDHFR” value at LmDHFR-TS was “inactive; also recorded: no inhibition”. Moreover, the EC50 in the assay on T. brucei is 6.3 µM; in the assay on L. donovani, 5.6 µM; in the assay on T. cruzi, 4.2 µM.
As for `COc1ccc(Oc2ccc(C(C)N(C)c3ncc4c(N)nc(N)nc4n3)cc2)cc1` (centres unmarked) [TCMDC-143295], the IC50 at TbPTR1 was 7.9 µM; at LmPTR1, 6.7 µM; on TbDHFR-TS, over 40 µM; on LmDHFR-TS, 16.6 µM. The “IC50 TbDHFR” value on TbDHFR-TS is listed as “not active”. In addition, the EC50 in the assay on L. donovani is 0.06 µM.
As to `Cc1cc(-c2ccc3ccccc3c2)nc2nc(N)nc(N)c12` [TCMDC-143607], the IC50 on TbPTR1 was 7.3 µM; at LmPTR1, 8.1 µM; on TbDHFR-TS, over 40 µM; at LmDHFR-TS, over 40 µM. Besides, the values for the EC50 with T. brucei and in the assay on L. donovani were 25.8 µM and 2.7 µM, respectively.
Turning to `CCN(Cc1nc2ccc(C(=O)N3CCN(c4ncccn4)CC3)cc2[nH]1)C1CCCc2cccnc21` (centres unmarked) [TCMDC-143518], the half-maximal inhibitory concentration (IC50) at TbPTR1 was 33.3 µM; on LmPTR1, 8.5 µM; on TbDHFR-TS, over 40 µM; on LmDHFR-TS it was 25 µM. For the same compound, at LmPTR1, the inhibition at 10 µM was found to be 59%. Besides, the figures for the EC50 with T. brucei and in the assay on L. donovani were 3.8 µM and 3.5 µM, respectively.
For the compound `Cc1nc2c(-c3ncn[nH]3)cc(NC(=O)Cc3ccccc3)cn2c1C` [TCMDC-143459], the inhibition at 10 µM on TbPTR1 came out at 51%. The IC50 at TbPTR1 is 9.8 µM; at LmPTR1, over 40 µM; at TbDHFR-TS, over 40 µM; on LmDHFR-TS, over 40 µM. For the same compound, the values for the EC50 in the assay with T. brucei and in the assay on L. donovani were 6.6 µM and 0.5 µM, respectively.
`Cc1ccc2c(c1)-c1onc(C(=O)N3CCCC[C@H]3c3cccnc3)c1CO2` [TCMDC-143191]: the inhibition at 10 µM at TbPTR1 is 51%. The IC50 at TbPTR1 was 9.8 µM; at LmPTR1, 38.5 µM; on TbDHFR-TS it was over 40 µM; at LmDHFR-TS it was over 40 µM. Further, the EC50 is 39.8 µM with T. brucei and over 40 µM in the assay with L. donovani.
As to `Cc1cc(N(C)C)nc2ccc(Cc3cnc(N)nc3N)cc12` [TCMDC-143611], the IC50 was 8.9 µM on TbPTR1, 9.8 µM on LmPTR1, over 40 µM at TbDHFR-TS and over 40 µM on LmDHFR-TS. Also, the EC50 was 5 µM in the assay with T. brucei and over 40 µM in the assay on L. donovani.
Take `CN(Cc1cc2ccccc2s1)c1ncc2c(N)nc(N)nc2n1` [TCMDC-143232]: the concentration for half-maximal inhibition (IC50) at TbPTR1 was 10.9 µM; at LmPTR1, 5.9 µM; at TbDHFR-TS, over 40 µM; at LmDHFR-TS it was 24.4 µM. For the same compound, the “IC50 TbDHFR” value at TbDHFR-TS is reported as “not active”. In addition, the EC50 is 28.4 µM in the assay on T. brucei and 29.5 µM in the assay with L. donovani.
For `COc1ccc(C(C)N(C)c2ncc3c(N)nc(N)nc3n2)cc1F` (centres unmarked) [TCMDC-143298], the IC50 at TbPTR1 is 8.1 µM; on LmPTR1, 6 µM; at TbDHFR-TS, over 40 µM; on LmDHFR-TS, over 40 µM. In addition, the “IC50 TbDHFR” value at TbDHFR-TS is recorded as “did not show any activity”. Further, the “IC50 LmDHFR” value at LmDHFR-TS is “did not show any activity”. Moreover, the EC50 in the assay with T. brucei is 8.8 µM; in the assay with L. donovani, 10.8 µM.
Regarding `CCCc1nc2nc(N)nc(N)c2cc1CC` [TCMDC-143606], the IC50 at TbPTR1 was about 6 µM; at TbPTR1 (listed as 143606), 6.4 µM; at LmPTR1 it was about 6 µM; at LmPTR1 (listed as 143606) it was 6.8 µM; at TbDHFR-TS, over 40 µM; on LmDHFR-TS, 19.4 µM. Further, the EC50 in the assay on T. brucei is about 20 µM; in the assay on T. brucei (listed as 143606) it was 22.5 µM; in the assay with L. donovani, about 20 µM; in the assay on L. donovani (listed as 143606), 27.2 µM.

The term IC50 denotes the point on the concentration scale where inhibition reaches its midpoint. By EC50 is commonly meant the concentration giving half of the maximal effect. What is called inhibition is the change of the read-out against control, counted positive when it falls.
